The values below come from article PMC7179955 (Pharmaceutical research, 2016).

The test system of one data set is P-gp. Conditions: cited from earlier work.
The conditions of data set [1]: cited from earlier work.
For data set [2] the following is noted: addition of 100 mg ritonavir to 300 mg atazanavir; cited from earlier work.
The conditions of data set [3]: cited from earlier work. The source holds these as a separate data set.
The conditions of data set [4]: human, in vivo.
Data set [5] has as its system gastric pH. The data set is described as follows: Intra-gastric pH monitoring with the Heidelberg pH capsule. Format: in vivo, human.
For data set [6], the system named is gastric pH. Conditions: cited from earlier work.
The conditions of data set [7]: administered with Coca-Cola (pH = 2.5) compared to water; cited from earlier work.
Setting [8] is: fed state, rabeprazole pretreated.

≈ marks a conversion by molar mass, not a printed value. Where a name gives a salt, the structure may show the parent alone. Read-outs that look alike come from different tables or passages of the source.

Take `COC(=O)N[C@H](C(=O)N[C@@H](Cc1ccccc1)[C@@H](O)CN(Cc1ccc(-c2ccccn2)cc1)NC(=O)[C@@H](NC(=O)OC)C(C)(C)C)C(C)(C)C` [Atazanavir]: the “Inhibitory effect of a known P-gp inhibitor on atazanavir efflux” value with P-gp (pH 5.5) is given as 78%. The “Inhibitory effect of a known P-gp inhibitor on atazanavir efflux” value with P-gp (pH 7.4) is reported as 245%. Besides, the Solubility (as a rule, the concentration that dissolves in the medium under given conditions) in data set [1] (pH 2) was 5200 µg/mL (≈ 7.38 mM). In data set [1] (pH 4), the Solubility is less than 5 µg/mL. Besides, in data set [2], the “Increase in atazanavir AUC” value was 238% and the “Increase in atazanavir Cmax” value is recorded as 86%. The “Reductions in boosted atazanavir exposures” value in data set [3] (omeprazole 20 mg once daily) is on record as 39-46%. Further, the Exposure reductions in data set [3] (ritonavir-boosted atazanavir with omeprazole 40 mg once daily, light meal) is 72-76%. In data set [4], the “AUClast lost due to rabeprazole that was restored by addition of BHCl” value is listed as 12%; the “Differences in Tmax across treatments” value is given as “No significant differences”; the “Individual decrease in AUClast and Cmax after rabeprazole pretreatment” value is on record as 11-48%; the “Mean exposure lost due to rabeprazole that was restored by addition of BHCl” value is recorded as 12-13%. The “Mean plasma concentration in Treatment C compared with Treatment B” value in data set [4] (1.5 h) is on record as 3.4 times.
Take `C[N+](C)(C)CC(=O)O` [BHCl, betaine hydrochloride]: the “Lowest observed gastric pH” value in the data set with gastric pH [5] (1500 mg BHCl after rabeprazole pretreatment, fed state, mean ± SD) came out at 0.838 ±0.391. In the data set with gastric pH [5] (setting [8]), the “Length of the reacidification period (time for gastric pH to rebound to pH >4)” value stood at 76 ±20 minutes and the “Time to achieve lowest gastric pH after BHCl administration” value was determined as 67 ±33 minutes. In addition, in the data set with gastric pH [6] (pilot study, rabeprazole-pretreated healthy volunteers), the “Average onset of effect (time to achieve a pH < 3)” value is on record as roughly 5 minutes.
On to `CC(C)c1nc(CN(C)C(=O)N[C@H](C(=O)N[C@@H](Cc2ccccc2)C[C@H](O)[C@H](Cc2ccccc2)NC(=O)OCc2cncs2)C(C)C)cs1` [Ritonavir], for which, in data set [4], the “AUClast lost due to rabeprazole that was restored by addition of BHCl” value amounted to 13% and the “Cmax lost due to rabeprazole that was restored by addition of BHCl” value was 12%.
`COc1ccc2[nH]c([S+]([O-])Cc3ncc(C)c(OC)c3C)nc2c1` (stereo not shown) [omeprazole]: the “Gastric pH around the time of atazanavir administration” value in the data set on gastric pH [6] (pretreatment with high-dose omeprazole) was roughly 6.
With `CC[C@@H]([C@H](C)O)n1ncn(-c2ccc(N3CCN(c4ccc(OC[C@@H]5CO[C@@](Cn6cncn6)(c6ccc(F)cc6F)C5)cc4)CC3)cc2)c1=O` [posaconazole], the “Increase in systemic exposure” value in data set [7] is reported as greater than 70%.
On to `COCCCOc1ccnc(C[S+]([O-])c2nc3ccccc3[nH]2)c1C` (stereo not shown) [rabeprazole], for which the “Gastric pH around the time of atazanavir administration” value in the data set on gastric pH [5] (pretreatment with rabeprazole, after light meal) is on record as roughly 3.
